Assay results reported in patent publication US10633364B2, “Crystals of quinazoline derivative and preparation method therefor” (Xuanzhu Pharma Co., Ltd., priority 2015, dated 2020).
≈ marks a conversion by molar mass, not a printed value. Read-outs that look alike come from different tables or passages of the source.

Experiments:
[1] = Pharmacokinetics of different forms in beagle dogs; format: in vivo; conditions: capsule, 3 mg/kg
Description: Animal subject: beagle dogs, male, weighed 8˜14 kg, 3 dogs/crystal form. Beagle dogs were purchased from Beijing Marshall Biotechnology Co. Ltd.
Administration: three test samples were prepared into capsules, at an administration dose of 3 mg/kg according to body weight of dog.
About 37.3 mg of an amorphous compound was weighed, and packaged into hollow capsules (three capsules in total, one capsule per dog).
Blood was collected 10 min, 30 min, 1 h, 2 h, 4 h, 6 h, 8 h, and 24 h after administration. Before blood collection, the animals were fixed, and whole blood (about 400 μL) was collected from vein of forelimb at each time point, and added to K2EDTA-containing anticoagulation tubes. The whole blood sample was centrifuged for 6 min at 4° C., 8000 rpm in a high speed centrifuge, and plasma was separated. Plasma needed to be prepared within 30 min after blood collection, and plasma was stored at −80° C. in a refrigerator.
The plasma samples were analyzed by protein precipitation: to plasma (50 μL), an internal standard Afatinib dimaleate (200 μL, 50 ng/mL acetonitrile solution) was added; the resultant mixture was vortexed at 1500 rpm for 3 min, and centrifuged at 12000 rpm for 5 min; to the supernatant (100 μL), water (100 μL) was added; the resultant mixture was mixed homogeneously under vortexing and analyzed by LC-MS/MS for blood concentration.
PK parameters were calculated by using Pharsight Phoenix 6.2 software.

[2] = Stability of Crystal form I under influencing factor condition (high temperature of 60° C.); format: physicochemical
Description: A test sample was kept under influencing factor condition (a high temperature of 60° C.) for 30 d. Samples were separately taken at specified time points, and compared with the sample at Day 0. XRPD, relevant substances, contents, character, acidity, moisture content, and the like were determined. During the study, samples were packaged with plastic bags and sealed with aluminum foil outside.
(§1) In accordance with High Performance Liquid Chromatography in Appendix V D in Pharmacopoeia of the People's Republic of China (2010), samples at Day 0 were used as control samples, and samples were determined by external standard method.
(§2) In accordance with High Performance Liquid Chromatography in Appendix V D in Pharmacopoeia of the People's Republic of China (2010), samples were determined by area normalization method.
(§3) The moisture content was determined in accordance with First Method for Determining Moisture Content B (Coulometric Titration) in Appendix VIII M in Pharmacopoeia of the People's Republic of China (2010).

[3] = Soluble property test in water; format: physicochemical
Description: (1) Soluble property test: to a test sample, adding a corresponding solvent dropwise in a small amount for several times, shaking in a 25° C. thermostat water bath until the sample was completely dissolved, and calculating the dissolved concentration, i.e., soluble property.

[4] = Solubility test (saturated solubility) in water; format: physicochemical
Description: (2) Solubility test: to a suitable volume of water, adding a test sample until oversaturation occurred in the solution of the sample, vortexing, centrifuging, filtrating the supernatant and then diluting it to a suitable concentration, subjecting the sample to a liquid chromatographic instrument, and determining the saturated concentration of the sample (i.e., saturated solubility) by external standard method.

[5] = Stability of Crystal form I under accelerated condition and long-term condition; format: physicochemical; conditions: 30° C. 1 month
[6] = as above; format: physicochemical
Description: Test samples were kept under accelerated condition (40° C.+RH 75%) for 6 months. Samples were separately taken at specified time points. XRPD, character, relevant substances, content, acidity, moisture content and the like were studied.
Test samples were kept under long-term condition (25° C.) for 6 months. Samples were separately taken at specified time points. Important items of stability (relevant substances) were studied.
At the last time point of the accelerated condition and long-term condition, XRPD, character, relevant substances, content, pH, moisture content and the like were studied.
as §1, §2, §3

[7] = Stability of Crystal form II under influencing factor condition; format: physicochemical
Description: Test samples in culture dishes were left uncovered. The test samples, which were kept under influencing factor conditions (a high temperature of 60° C., 25° C.-high moisture RH 75%, and 25° C.-high moisture RH 92.5%, under the condition of light) for 5 days and 10 days, were studied for stability; and the test samples which were kept at 40° C. for 5 days, 10 days and 30 days, and the test samples which were kept at 25° C. for 30 days and 90 days, were studied for stability. Samples were separately taken at specified time points, and the items (moisture content (Coulomb), relevant substances, XRPD) were studied. In accordance with High Performance Liquid Chromatography in Appendix V D in Pharmacopoeia of the People's Republic of China (2010), samples were determined by area normalization method. The moisture content was determined in accordance with First Method for Determining Moisture Content B (Coulometric Titration) in Appendix VIII M in Pharmacopoeia of the People's Republic of China (2010).

EGFR = EGFR (Homo sapiens, UniProt P00533); conditions: disclosed in WO2012027960A1; cited from earlier work
[8] = system: erlotinib-resistant H1975 cell line; conditions: cited from earlier work
HER2 = HER2 (Homo sapiens, UniProt P04626); conditions: disclosed in WO2012027960A1; cited from earlier work
HER4 = HER4 (Homo sapiens, UniProt Q15303); conditions: disclosed in WO2012027960A1; cited from earlier work
[9] = RH75% 5 days, 25° C., uncovered
[10] = RH75% 10 days, 25° C., uncovered
[11] = RH92.5% 5 days, 25° C., uncovered
[12] = RH92.5% 10 days, 25° C., uncovered

Sequence of HER2 (P04626 23-1255): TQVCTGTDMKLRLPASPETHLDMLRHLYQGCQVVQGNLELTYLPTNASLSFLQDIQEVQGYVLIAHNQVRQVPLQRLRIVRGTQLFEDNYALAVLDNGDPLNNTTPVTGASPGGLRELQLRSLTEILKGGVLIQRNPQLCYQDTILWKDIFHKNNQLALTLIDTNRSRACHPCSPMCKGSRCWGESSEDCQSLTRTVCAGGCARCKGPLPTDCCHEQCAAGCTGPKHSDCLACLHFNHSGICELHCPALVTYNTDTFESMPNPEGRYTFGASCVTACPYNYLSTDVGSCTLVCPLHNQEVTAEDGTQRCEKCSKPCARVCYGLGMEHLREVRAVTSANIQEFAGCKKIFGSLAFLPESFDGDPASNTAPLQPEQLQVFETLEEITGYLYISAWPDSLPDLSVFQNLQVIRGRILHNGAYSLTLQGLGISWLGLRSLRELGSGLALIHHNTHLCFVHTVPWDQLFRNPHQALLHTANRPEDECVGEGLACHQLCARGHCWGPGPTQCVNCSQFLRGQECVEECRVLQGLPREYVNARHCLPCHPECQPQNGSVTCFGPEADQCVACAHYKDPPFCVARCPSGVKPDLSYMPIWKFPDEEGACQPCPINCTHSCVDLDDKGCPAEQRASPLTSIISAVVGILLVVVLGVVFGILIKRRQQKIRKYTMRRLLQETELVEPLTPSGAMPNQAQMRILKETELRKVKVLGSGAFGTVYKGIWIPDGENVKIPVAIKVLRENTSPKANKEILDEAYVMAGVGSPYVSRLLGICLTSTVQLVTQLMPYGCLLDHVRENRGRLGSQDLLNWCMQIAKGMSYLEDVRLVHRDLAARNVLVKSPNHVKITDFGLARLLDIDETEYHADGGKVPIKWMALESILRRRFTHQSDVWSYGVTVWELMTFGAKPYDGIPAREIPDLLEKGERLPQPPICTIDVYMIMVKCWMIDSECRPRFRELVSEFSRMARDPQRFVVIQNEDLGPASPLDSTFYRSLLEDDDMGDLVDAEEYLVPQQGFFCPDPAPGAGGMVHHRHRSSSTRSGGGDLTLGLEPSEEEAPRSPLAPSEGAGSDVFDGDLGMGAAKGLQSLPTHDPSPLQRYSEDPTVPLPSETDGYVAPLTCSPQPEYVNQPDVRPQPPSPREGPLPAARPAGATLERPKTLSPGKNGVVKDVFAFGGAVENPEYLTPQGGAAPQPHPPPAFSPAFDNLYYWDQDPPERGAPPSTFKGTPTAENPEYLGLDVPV
Sequence of HER4 (Q15303 26-1308): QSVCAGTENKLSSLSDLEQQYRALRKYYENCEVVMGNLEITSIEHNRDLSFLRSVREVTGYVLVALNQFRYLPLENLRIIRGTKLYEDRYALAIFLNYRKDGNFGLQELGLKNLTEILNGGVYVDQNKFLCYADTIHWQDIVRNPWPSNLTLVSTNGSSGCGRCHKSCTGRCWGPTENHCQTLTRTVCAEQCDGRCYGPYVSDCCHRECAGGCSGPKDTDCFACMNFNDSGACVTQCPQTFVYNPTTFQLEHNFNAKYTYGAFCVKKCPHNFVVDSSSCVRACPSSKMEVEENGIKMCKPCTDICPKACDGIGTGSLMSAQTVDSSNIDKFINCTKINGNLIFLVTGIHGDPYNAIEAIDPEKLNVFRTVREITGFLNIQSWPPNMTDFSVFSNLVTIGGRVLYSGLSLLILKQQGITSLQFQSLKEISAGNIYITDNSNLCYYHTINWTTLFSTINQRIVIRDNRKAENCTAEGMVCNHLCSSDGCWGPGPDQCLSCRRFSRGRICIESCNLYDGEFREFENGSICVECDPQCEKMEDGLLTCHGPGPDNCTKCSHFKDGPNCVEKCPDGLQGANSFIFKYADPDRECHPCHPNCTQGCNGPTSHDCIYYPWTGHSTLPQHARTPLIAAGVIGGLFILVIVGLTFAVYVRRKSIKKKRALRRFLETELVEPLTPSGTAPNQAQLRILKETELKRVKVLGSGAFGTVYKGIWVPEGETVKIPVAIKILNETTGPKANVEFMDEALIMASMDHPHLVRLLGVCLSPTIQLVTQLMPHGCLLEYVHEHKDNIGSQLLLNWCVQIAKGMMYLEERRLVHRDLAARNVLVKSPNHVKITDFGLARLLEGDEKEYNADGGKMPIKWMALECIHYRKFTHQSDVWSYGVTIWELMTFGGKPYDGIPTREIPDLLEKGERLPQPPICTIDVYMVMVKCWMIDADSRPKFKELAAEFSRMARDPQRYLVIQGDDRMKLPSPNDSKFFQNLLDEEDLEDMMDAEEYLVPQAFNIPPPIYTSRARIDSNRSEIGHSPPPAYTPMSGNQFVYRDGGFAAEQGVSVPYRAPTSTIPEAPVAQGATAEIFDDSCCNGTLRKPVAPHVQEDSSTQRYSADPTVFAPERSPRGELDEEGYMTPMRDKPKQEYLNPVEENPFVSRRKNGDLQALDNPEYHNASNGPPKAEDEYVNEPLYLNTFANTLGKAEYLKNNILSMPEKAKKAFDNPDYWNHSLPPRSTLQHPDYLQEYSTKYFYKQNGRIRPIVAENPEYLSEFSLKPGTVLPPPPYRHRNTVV
Sequence of EGFR (P00533 25-1210): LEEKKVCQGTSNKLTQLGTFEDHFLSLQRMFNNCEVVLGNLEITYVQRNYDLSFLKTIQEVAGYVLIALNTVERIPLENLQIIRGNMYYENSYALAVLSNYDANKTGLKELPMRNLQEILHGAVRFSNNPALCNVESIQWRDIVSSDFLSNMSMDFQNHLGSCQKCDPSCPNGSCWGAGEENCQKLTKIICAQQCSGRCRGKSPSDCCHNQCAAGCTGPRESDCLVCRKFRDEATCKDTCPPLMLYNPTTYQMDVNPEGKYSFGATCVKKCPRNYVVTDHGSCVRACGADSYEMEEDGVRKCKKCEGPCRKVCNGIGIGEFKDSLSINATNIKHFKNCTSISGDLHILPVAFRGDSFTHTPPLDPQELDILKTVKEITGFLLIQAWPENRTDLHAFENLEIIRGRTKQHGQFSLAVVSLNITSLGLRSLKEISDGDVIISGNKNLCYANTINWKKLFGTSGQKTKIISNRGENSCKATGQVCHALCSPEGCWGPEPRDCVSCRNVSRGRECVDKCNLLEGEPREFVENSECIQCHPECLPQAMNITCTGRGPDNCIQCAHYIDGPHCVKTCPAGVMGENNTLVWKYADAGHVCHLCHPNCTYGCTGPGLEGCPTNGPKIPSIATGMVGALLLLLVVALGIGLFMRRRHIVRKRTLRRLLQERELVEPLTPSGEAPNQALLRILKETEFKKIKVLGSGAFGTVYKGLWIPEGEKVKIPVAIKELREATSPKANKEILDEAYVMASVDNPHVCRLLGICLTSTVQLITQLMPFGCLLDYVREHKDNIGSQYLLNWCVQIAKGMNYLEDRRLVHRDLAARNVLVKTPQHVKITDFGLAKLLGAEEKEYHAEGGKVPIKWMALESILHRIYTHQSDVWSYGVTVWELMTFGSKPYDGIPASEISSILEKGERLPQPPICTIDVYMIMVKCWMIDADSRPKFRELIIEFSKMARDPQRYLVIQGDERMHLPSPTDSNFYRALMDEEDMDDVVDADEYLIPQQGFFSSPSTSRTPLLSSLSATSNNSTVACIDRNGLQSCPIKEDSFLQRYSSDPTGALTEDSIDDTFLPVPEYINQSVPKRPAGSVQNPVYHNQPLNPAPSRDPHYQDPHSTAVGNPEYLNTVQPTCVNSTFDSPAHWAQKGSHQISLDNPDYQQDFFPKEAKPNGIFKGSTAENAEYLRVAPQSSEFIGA

C=CC(=O)Nc1cc2c(Nc3ccc(F)c(Cl)c3)ncnc2cc1OCC1CC2(CCN(C)CC2)C1 [Amorphous form, N-(4-((3-chloro-4-fluorophenyl)amino)-7-((7-methyl-7-azaspiro[3.5]nonan-2-yl)methoxy)quinazolin-6-yl)acrylamide]
AUC0-t [1]: 68.6 ng·h/mL | AUCinf [1]: 79.9 ng·h/mL | Cmax [1]: 16.6 ng/mL | T1/2 [1]: 2.47 h | Tmax [1]: 2.00 h

C=CC(=O)Nc1cc2c(Nc3ccc(F)c(Cl)c3)ncnc2cc1OCC1CC2(CCN(C)CC2)C1 [Crystal form I, N-(4-((3-chloro-4-fluorophenyl)amino)-7-((7-methyl-7-azaspiro[3.5]nonan-2-yl)methoxy)quinazolin-6-yl)acrylamide]
Content ([2]; 0 day): 100.8% | Moisture content ([2]; 0 day): 3.9% | Relevant substances ([2]; 0 day): 0.15% | pH ([2]; 0 day): 2.8 | Content ([2]; 60° C.-covered-1 month): 100.7% | Moisture content ([2]; 60° C.-covered-1 month): 4.4% | Relevant substances ([2]; 60° C.-covered-1 month): 0.20% | pH ([2]; 60° C.-covered-1 month): 2.8 | Content ([2]; 60° C.-covered-5 days): 100.9% | Moisture content ([2]; 60° C.-covered-5 days): 4.5% | Relevant substances ([2]; 60° C.-covered-5 days): 0.23% | pH ([2]; 60° C.-covered-5 days): 2.8 | Content ([2]; 60° C.-covered-10 days): 100.7% | Moisture content ([2]; 60° C.-covered-10 days): 4.5% | Relevant substances ([2]; 60° C.-covered-10 days): 0.24% | pH ([2]; 60° C.-covered-10 days): 2.7 | Overall stability conclusion ([2]; kept under various conditions for 1 month (Tables 3 and 4)): high stability | Soluble property (descriptive term) ([3]; 25° C.): slightly soluble, (soluble | solubility ([3]; 25 °C, thermodynamic from solid): 20 mg/mL (≈ 39.2 mM) | solubility ([4]; thermodynamic from solid): 39.1 mg/mL (≈ 76.7 mM) | Content [5]: 100.8% | Moisture content [5]: 4.3% | Relevant substances [5]: 0.18% | pH [5]: 2.8 | Content ([6]; 0 day): 100.8% | Moisture content ([6]; 0 day): 3.9% | Relevant substances ([6]; 0 day): 0.15% | pH ([6]; 0 day): 2.8 | Content ([6]; 25° C. 1 month): 100.7% | Moisture content ([6]; 25° C. 1 month): 4.2% | Relevant substances ([6]; 25° C. 1 month): 0.18% | pH ([6]; 25° C. 1 month): 2.8 | Content ([6]; 40° C. 1 month): 100.9% | Moisture content ([6]; 40° C. 1 month): 4.6% | Relevant substances ([6]; 40° C. 1 month): 0.19% | pH ([6]; 40° C. 1 month): 2.8 | T1/2 [1]: 4.95 h | AUC(0-inf) ([1]; male, beagle, dog, plasma, po): 115 ng·h/mL | AUC0-t ([1]; male, beagle, dog, plasma, po, read-out: AUC0-t): 112 ng·h/mL | Cmax ([1]; male, beagle, dog, plasma, po, read-out: Cmax): 15.3 ng/mL | Tmax ([1]; male, dog, plasma, po, read-out: Tmax): 2 h

C=CC(=O)Nc1cc2c(Nc3ccc(F)c(Cl)c3)ncnc2cc1OCC1CC2(CCN(C)CC2)C1 [Crystal form II, N-(4-((3-chloro-4-fluorophenyl)amino)-7-((7-methyl-7-azaspiro[3.5]nonan-2-yl)methoxy)quinazolin-6-yl)acrylamide]
Soluble property ([3]; 25° C.): property: 23.23) mg/mL | Soluble property (descriptive term) ([3]; 25° C.): slightly soluble, (soluble | Solubility (saturated solubility) [4]: solubility: 28.94 mg/mL | Moisture content ([7]; 0 day): 13.1% | Relevant substances ([7]; 0 day): 1.2% | Moisture content ([7]; 25° C. 3 months, uncovered): 13.4% | Relevant substances ([7]; 25° C. 3 months, uncovered): 1.3% | Moisture content ([7]; 25° C. 30 days, uncovered): 13.1% | Relevant substances ([7]; 25° C. 30 days, uncovered): 1.3% | Crystal form XRPD ([7]; 40° C. 5 days, uncovered): Crystal form I | Moisture content ([7]; 40° C. 5 days, uncovered): 4.5% | Relevant substances ([7]; 40° C. 5 days, uncovered): 1.3% | Crystal form XRPD ([7]; 40° C. 10 days, uncovered): Crystal form I | Moisture content ([7]; 40° C. 10 days, uncovered): 5.6% | Relevant substances ([7]; 40° C. 10 days, uncovered): 1.6% | Crystal form XRPD ([7]; 40° C. 30 days, uncovered): Crystal form I | Moisture content ([7]; 40° C. 30 days, uncovered): 5.3% | Relevant substances ([7]; 40° C. 30 days, uncovered): 3.0% | Crystal form XRPD ([7]; 60° C. 5 days, uncovered): Crystal form I | Moisture content ([7]; 60° C. 5 days, uncovered): 4.4% | Relevant substances ([7]; 60° C. 5 days, uncovered): 1.8% | Crystal form XRPD ([7]; 60° C. 10 days, uncovered): Crystal form I | Moisture content ([7]; 60° C. 10 days, uncovered): 5.3% | Relevant substances ([7]; 60° C. 10 days, uncovered): 2.3% | Moisture content ([7]; Light 5 days, uncovered): 13.2% | Relevant substances ([7]; Light 5 days, uncovered): 1.5% | Moisture content ([7]; Light 10 days, uncovered): 13.3% | Relevant substances ([7]; Light 10 days, uncovered): 1.8% | Moisture content [7, 9]: 13.2% | Relevant substances [7, 9]: 1.3% | Moisture content [7, 10]: 13.3% | Relevant substances [7, 10]: 1.3% | Moisture content [7, 11]: 13.4% | Relevant substances [7, 11]: 1.2% | Moisture content [7, 12]: 13.5% | Relevant substances [7, 12]: 1.3% | Overall stability conclusion ([7]; Table 5 conditions): sensitive to high temperature conditions | AUC0-t [1]: 110 ng·h/mL | AUCinf [1]: 111 ng·h/mL | Cmax [1]: 14.6 ng/mL | T1/2 [1]: 3.98 h | Tmax [1]: 2.00 h

C=CC(=O)Nc1cc2c(Nc3ccc(F)c(Cl)c3)ncnc2cc1OCC1CC2(CCN(C)CC2)C1 [Formula (I), N-(4-((3-chloro-4-fluorophenyl)amino)-7-((7-methyl-7-azaspiro[3.5]nonan-2-yl)methoxy)quinazolin-6-yl)acrylamide]
Inhibition of EGFR (EGFR): effectively inhibit EGFR | Inhibitory effect on H1975 cell line [8]: significantly inhibitory effect | Inhibitory effect on HER2 (HER2): inhibitory effect | Inhibitory effect on HER4 (HER4): inhibitory effect
